Tests used:
Test in all cases: KINOMEscan competition binding
Settings in all cases: compound 1.0 µM
[1] = biological target: VRK2 (human) (UniProt Q86Y07)
[2] = biological target: ACVRL1 (human) (UniProt P37023)
[3] = biological target: YES1 (human) (UniProt P07947)
[4] = biological target: GSK3A (human) (UniProt P49840)
[5] = biological target: ADCK3 (human) (UniProt Q8NI60)
[6] = biological target: IGF1R (human) (UniProt P08069)
[7] = biological target: SGK110 (human) (UniProt P0C264)
[8] = biological target: CSNK2A1 (human) (UniProt P68400)
[9] = biological target: ANKK1 (human) (UniProt Q8NFD2)
[10] = biological target: MAP3K12 (human) (UniProt Q12852)
MAP3K12 (human), sequence (Q12852 whole entry, looked up): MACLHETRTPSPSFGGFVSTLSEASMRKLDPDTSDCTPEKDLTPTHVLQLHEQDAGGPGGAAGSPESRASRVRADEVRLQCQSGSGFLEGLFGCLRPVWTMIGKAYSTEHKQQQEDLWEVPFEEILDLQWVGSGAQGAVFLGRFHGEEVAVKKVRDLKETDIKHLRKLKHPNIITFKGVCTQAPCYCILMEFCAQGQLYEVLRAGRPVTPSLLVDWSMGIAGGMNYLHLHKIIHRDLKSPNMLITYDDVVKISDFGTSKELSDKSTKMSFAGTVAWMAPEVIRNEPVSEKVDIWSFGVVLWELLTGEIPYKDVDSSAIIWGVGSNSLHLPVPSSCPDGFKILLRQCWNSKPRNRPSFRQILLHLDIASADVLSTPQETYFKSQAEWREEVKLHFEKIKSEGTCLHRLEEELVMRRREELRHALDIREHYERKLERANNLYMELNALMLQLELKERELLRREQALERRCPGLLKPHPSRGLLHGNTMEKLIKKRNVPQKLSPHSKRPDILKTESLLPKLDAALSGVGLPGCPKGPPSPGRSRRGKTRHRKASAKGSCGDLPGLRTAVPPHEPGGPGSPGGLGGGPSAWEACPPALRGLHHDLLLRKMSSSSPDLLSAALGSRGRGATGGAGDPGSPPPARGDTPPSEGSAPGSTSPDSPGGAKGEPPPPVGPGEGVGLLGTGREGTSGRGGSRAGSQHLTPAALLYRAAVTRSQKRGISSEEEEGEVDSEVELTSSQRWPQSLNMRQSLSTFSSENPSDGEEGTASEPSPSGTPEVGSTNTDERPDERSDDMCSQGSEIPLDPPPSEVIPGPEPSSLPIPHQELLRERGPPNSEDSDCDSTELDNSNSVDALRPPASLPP

[11] = biological target: DAPK2 (human) (UniProt Q9UIK4)
[12] = biological target: MARK4 (human) (UniProt Q96L34)
MARK4 (human), sequence (Q96L34 whole entry, looked up): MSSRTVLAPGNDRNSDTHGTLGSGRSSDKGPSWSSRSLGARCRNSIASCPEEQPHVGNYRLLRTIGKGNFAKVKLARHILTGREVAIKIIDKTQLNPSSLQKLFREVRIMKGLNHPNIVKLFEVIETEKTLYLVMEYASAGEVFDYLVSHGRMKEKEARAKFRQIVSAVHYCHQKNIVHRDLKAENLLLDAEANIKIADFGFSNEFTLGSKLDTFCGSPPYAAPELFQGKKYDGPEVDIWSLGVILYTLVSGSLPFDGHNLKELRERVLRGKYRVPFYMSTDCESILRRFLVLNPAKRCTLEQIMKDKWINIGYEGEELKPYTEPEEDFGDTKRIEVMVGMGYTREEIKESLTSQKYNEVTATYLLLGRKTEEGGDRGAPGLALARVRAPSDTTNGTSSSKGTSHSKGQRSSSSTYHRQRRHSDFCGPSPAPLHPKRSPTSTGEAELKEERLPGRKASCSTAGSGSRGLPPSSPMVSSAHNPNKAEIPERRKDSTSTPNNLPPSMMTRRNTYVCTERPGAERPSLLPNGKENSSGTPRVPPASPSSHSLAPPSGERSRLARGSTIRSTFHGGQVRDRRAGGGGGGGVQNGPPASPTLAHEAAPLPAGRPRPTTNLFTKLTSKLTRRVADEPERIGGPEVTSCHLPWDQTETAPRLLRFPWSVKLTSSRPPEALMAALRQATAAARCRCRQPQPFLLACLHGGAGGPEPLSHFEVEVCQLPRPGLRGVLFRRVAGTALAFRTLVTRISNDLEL

[13] = biological target: CSNK1G2 (human) (UniProt P78368)
[14] = biological target: NEK4 (human) (UniProt P51957)
[15] = biological target: GRK7 (human) (UniProt Q8WTQ7)
[16] = biological target: AURKB (human) (UniProt Q96GD4)
AURKB (human), sequence (Q96GD4 whole entry, looked up): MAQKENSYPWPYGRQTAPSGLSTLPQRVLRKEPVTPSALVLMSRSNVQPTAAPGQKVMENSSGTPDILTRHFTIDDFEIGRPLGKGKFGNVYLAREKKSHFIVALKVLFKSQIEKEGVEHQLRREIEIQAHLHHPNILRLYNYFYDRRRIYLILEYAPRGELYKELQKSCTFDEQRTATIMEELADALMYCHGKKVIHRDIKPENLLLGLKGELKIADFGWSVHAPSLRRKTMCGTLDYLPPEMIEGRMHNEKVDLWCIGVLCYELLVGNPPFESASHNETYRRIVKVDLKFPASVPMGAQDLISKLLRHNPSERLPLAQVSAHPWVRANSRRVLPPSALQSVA

[17] = biological target: GRK4 (human) (UniProt P32298)
[18] = biological target: MYLK4 (human) (UniProt Q86YV6)
[19] = biological target: FLT3 (human) (UniProt P36888)
FLT3 (human), sequence (P36888 whole entry, looked up): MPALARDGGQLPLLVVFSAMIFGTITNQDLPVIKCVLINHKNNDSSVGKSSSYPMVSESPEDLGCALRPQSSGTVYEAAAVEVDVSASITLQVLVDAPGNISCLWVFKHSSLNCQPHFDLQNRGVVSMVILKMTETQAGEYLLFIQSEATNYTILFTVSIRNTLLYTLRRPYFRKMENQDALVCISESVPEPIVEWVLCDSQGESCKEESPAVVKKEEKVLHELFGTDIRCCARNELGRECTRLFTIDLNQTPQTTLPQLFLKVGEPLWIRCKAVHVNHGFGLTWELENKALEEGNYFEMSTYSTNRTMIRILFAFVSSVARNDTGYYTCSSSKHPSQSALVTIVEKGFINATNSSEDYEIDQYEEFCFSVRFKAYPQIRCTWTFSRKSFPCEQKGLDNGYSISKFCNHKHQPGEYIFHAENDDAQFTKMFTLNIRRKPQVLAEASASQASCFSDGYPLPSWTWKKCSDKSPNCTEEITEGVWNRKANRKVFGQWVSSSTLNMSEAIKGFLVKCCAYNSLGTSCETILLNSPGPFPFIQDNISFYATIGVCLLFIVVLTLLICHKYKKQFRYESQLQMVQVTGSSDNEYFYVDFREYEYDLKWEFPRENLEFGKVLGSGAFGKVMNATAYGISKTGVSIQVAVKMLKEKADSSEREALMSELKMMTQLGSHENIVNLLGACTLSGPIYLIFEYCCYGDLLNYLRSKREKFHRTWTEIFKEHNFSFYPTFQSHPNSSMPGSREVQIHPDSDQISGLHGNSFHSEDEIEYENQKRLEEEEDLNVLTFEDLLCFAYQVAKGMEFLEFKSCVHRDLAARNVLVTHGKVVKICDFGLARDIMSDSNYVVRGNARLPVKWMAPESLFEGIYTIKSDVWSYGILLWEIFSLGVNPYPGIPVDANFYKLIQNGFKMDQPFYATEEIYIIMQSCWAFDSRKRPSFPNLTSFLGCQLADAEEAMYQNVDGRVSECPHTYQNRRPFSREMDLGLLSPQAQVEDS

[20] = biological target: NEK2 (human) (UniProt P51955)
NEK2 (human), sequence (P51955 whole entry, looked up): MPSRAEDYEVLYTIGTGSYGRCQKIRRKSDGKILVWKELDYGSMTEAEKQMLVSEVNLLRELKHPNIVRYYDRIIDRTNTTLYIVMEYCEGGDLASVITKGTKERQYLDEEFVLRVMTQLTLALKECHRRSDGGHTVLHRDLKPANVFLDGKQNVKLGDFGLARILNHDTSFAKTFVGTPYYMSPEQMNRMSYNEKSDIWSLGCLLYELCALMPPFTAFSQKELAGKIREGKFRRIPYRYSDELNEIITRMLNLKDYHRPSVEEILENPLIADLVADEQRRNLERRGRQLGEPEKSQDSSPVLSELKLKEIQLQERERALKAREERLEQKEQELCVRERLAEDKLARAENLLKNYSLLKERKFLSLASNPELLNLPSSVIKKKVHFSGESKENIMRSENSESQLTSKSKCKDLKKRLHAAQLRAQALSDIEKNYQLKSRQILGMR

[21] = biological target: PTK2B (human) (UniProt Q14289)
[22] = biological target: RIPK2 (human) (UniProt O43353)
[23] = biological target: DYRK2 (human) (UniProt Q92630)
[24] = system: EGFR (human), P00533 [752-759 del]
[25] = biological target: LATS2 (human) (UniProt Q9NRM7)
[26] = biological target: RET (human) (UniProt P07949)
[27] = biological target: MAP2K6 (human) (UniProt P52564)
[28] = biological target: MAPK11 (human) (UniProt Q15759)
[29] = biological target: EPHB2 (human) (UniProt P29323)
[30] = biological target: TAOK3 (human) (UniProt Q9H2K8)
[31] = system: ABL1 (human), P00519 [M351T]
[32] = system: LRRK2 (human), Q5S007 [G2019S]
[33] = biological target: PIK3CD (human) (UniProt O00329)
[34] = biological target: PIP5K1C (human) (UniProt O60331)
PIP5K1C (human), sequence (O60331 whole entry, looked up): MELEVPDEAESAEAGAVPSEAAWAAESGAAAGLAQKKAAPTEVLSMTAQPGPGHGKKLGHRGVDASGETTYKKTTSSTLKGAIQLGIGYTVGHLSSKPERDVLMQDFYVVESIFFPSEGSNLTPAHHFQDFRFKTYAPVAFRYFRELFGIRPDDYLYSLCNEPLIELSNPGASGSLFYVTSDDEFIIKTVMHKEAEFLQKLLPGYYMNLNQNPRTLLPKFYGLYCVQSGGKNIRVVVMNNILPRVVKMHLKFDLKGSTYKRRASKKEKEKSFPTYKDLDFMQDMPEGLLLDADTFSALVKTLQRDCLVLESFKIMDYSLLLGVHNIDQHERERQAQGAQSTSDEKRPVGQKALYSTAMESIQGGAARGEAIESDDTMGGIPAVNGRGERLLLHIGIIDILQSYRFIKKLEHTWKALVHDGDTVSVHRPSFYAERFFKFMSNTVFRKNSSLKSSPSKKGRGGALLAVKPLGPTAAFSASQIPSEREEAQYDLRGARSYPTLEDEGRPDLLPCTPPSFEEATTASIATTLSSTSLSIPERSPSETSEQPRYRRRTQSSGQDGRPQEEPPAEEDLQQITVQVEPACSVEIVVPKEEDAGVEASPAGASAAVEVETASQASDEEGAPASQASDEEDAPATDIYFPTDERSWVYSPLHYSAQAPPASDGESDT

[35] = biological target: STK3 (human) (UniProt Q13188)
[36] = biological target: AKT2 (human) (UniProt P31751)
[37] = biological target: IRAK1 (human) (UniProt P51617)
[38] = biological target: MAP3K3 (human) (UniProt Q99759)
[39] = biological target: AAK1 (human) (UniProt Q2M2I8)
[40] = biological target: CDK17 (human) (UniProt Q00537)
[41] = system: KIT (human), P10721 [L576P]
[42] = biological target: CDK15 (human) (UniProt Q96Q40)
CDK15 (human), sequence (Q96Q40 whole entry, looked up): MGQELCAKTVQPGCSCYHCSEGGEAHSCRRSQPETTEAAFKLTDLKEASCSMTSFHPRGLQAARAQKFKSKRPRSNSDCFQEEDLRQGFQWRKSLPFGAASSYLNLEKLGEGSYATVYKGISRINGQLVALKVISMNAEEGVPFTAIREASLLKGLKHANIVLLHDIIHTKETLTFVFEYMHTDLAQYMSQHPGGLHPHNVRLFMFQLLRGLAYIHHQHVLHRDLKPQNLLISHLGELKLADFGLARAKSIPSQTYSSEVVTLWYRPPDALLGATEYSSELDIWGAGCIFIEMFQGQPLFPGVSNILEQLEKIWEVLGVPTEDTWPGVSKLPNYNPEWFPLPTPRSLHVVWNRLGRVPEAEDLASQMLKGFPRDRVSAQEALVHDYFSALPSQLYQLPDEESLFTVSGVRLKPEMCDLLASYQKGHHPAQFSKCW

[43] = biological target: ERBB3 (human) (UniProt P21860)

YES1 (human), sequence (P07947 whole entry, looked up): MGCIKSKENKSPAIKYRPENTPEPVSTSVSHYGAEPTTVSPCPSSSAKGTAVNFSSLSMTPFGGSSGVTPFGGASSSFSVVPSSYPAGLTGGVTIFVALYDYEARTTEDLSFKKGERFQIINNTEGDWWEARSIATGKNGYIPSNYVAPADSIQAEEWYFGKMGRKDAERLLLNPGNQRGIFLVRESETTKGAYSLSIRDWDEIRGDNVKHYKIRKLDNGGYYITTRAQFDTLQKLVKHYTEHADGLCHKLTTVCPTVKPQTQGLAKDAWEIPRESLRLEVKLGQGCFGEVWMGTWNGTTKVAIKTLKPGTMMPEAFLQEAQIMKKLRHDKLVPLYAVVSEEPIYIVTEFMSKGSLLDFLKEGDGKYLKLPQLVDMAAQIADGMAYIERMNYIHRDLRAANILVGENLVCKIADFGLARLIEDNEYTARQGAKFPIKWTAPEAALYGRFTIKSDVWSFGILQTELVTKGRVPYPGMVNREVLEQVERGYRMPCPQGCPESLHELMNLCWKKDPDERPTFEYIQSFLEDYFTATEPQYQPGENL

## COCCNCCCn1c(C(=O)CF)c(-c2ccc(C)cc2)c2c(N)ncnc21
[1]
  kinase still bound, per cent of control: 100%
[2]
  kinase still bound, per cent of control: 100%
[3]
  kinase still bound, per cent of control: 92%
[4]
  kinase still bound, per cent of control: 100%
[5]
  kinase still bound, per cent of control: 100%
[6]
  kinase still bound, per cent of control: 100%
[7]
  kinase still bound, per cent of control: 100%
[8]
  kinase still bound, per cent of control: 100%
[9]
  kinase still bound, per cent of control: 100%
[10]
  kinase still bound, per cent of control: 94%
[11]
  kinase still bound, per cent of control: 97%
[12]
  kinase still bound, per cent of control: 74%
[13]
  kinase still bound, per cent of control: 100%
[14]
  kinase still bound, per cent of control: 100%
[15]
  kinase still bound, per cent of control: 100%
[16]
  kinase still bound, per cent of control: 62%
[17]
  kinase still bound, per cent of control: 85%
[18]
  kinase still bound, per cent of control: 86%
[19]
  kinase still bound, per cent of control: 71%
[20]
  kinase still bound, per cent of control: 98%
[21]
  kinase still bound, per cent of control: 100%
[22]
  kinase still bound, per cent of control: 39%
[23]
  kinase still bound, per cent of control: 89%
[24]
  kinase still bound, per cent of control: 90%
[25]
  kinase still bound, per cent of control: 100%
[26]
  kinase still bound, per cent of control: 88%
[27]
  kinase still bound, per cent of control: 97%
[28]
  kinase still bound, per cent of control: 90%
[29]
  kinase still bound, per cent of control: 92%
[30]
  kinase still bound, per cent of control: 100%
[31]
  kinase still bound, per cent of control: 96%
[32]
  kinase still bound, per cent of control: 100%
[33]
  kinase still bound, per cent of control: 100%
[34]
  kinase still bound, per cent of control: 100%
[35]
  kinase still bound, per cent of control: 95%
[36]
  kinase still bound, per cent of control: 95%
[37]
  kinase still bound, per cent of control: 93%
[38]
  kinase still bound, per cent of control: 96%
[39]
  kinase still bound, per cent of control: 95%
[40]
  kinase still bound, per cent of control: 100%
[41]
  kinase still bound, per cent of control: 71%
[42]
  kinase still bound, per cent of control: 100%
[43]
  kinase still bound, per cent of control: 96%

Reference: the kinase profiling compilation of Christmann-Franck et al. (2016)
